What was measured:
Parameters in all cases: species or system Tryporyza intacta
TintPBP1 = TintPBP1 (Scirpophaga excerptalis, UniProt A0A345D2V5); assay: Fluorescence competitive binding assay with 1-NPN probe, TintPBP1; conditions: for Binding to TintPBP1 in competitive binding (in words): competitor 0.5–10.0 μM; for Ki: calculated from IC50, 1-NPN probe; for IC50: displacement of 1-NPN (2 μM), 25 °C
Procedure: (§1) To measure the affinities of the sex pheromones to TintPBP1-3 proteins, we used N-Phenyl-1-naphthylamine (1-NPN) as the fluorescent probe on a Hitachi F-4500 at 25 °C based on the method of Mao et al.[17]. 1-NPN was used as the fluorescent reporter (2 μM) and 0.5–10.0 μM for each competitor was used to test fluorescence competitive binding affinities of sex pheromones. Six compounds were selected and measured in competitive binding assays. The dissociation constant for 1-NPN and binding results were analyzed by Prism software. Each of IC50 values (concentrations of ligands halving the initial fluorescence value of 1-NPN) from competitors were calculated using following equation: Ki=[IC50]/1+[1−NPN]/K1−NPN, where [1-NPN] is the free concentration of 1-NPN and K1−NPN is the dissociation constant of the complex protein/1-NPN.

TintPBP2 = TintPBP2 (Scirpophaga excerptalis, UniProt A0A345D2V6); assay: Fluorescence competitive binding assay with 1-NPN probe, TintPBP2; conditions: for Binding to TintPBP2 in competitive binding (in words): competitor 0.5–10.0 μM; for Ki: calculated from IC50, 1-NPN probe; for IC50: displacement of 1-NPN (2 μM), 25 °C
Chain of TintPBP2 (A0A345D2V6 entry or part of it): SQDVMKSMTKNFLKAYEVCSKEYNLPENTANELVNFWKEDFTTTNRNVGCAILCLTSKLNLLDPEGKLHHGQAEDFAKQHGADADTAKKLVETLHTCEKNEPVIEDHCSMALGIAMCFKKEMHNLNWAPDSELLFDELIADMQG
Procedure: as §1

TintPBP3 = TintPBP3 (Scirpophaga excerptalis, UniProt A0A345D2V7); assay: Fluorescence competitive binding assay with 1-NPN probe, TintPBP3; conditions: for Binding to TintPBP3 in competitive binding (in words): competitor 0.5–10.0 μM; for Ki: calculated from IC50, 1-NPN probe; for IC50: displacement of 1-NPN (2 μM), 25 °C
Chain of TintPBP3 (A0A345D2V7 entry or part of it): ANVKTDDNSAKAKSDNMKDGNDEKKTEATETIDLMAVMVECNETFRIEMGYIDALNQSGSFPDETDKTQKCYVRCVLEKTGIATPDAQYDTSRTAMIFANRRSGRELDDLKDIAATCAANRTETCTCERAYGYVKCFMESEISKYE
Procedure: as §1

Chain of TintPBP1 (A0A345D2V5 entry or part of it): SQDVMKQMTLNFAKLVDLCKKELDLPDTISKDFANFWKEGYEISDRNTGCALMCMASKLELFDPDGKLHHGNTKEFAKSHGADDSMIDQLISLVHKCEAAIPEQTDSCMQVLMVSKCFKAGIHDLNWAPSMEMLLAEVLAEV

| Binding to TintPBP1 in competitive binding (in words) (TintPBP1) | Binding to TintPBP2 in competitive binding (in words) (TintPBP2) | Binding to TintPBP3 in competitive binding (in words) (TintPBP3) | Ki (TintPBP1) | IC50 (TintPBP1) | Ki (TintPBP2) | IC50 (TintPBP2) | Ki (TintPBP3) | IC50 (TintPBP3) | SMILES |
| --- | --- | --- | --- | --- | --- | --- | --- | --- | --- |
| cannot bind | cannot bind | cannot bind | – | – | – | – | – | – | CCCC/C=C\CCCCCCCCCCCCOC(C)=O [Z13–18:AC] |
| cannot bind | cannot bind | cannot bind | – | – | – | – | – | – | CCCC/C=C\CCCCCCCCCCCCO [Z13–18:OH] |
| cannot bind | cannot bind | cannot bind | – | – | – | – | – | – | CCCC/C=C\CCCCCCCCCCO [Z11–16:OH] |
| – | – | – | 2.15 ± 0.16 µM | 3.09 ± 0.22 µM | 3.58 ± 0.13 µM | 4.78 ± 0.17 µM | 3.45 ± 0.21 µM | 4.08 ± 0.24 µM | CCCC/C=C/CCCCCCCCCC=O [E11–16: Ald] |
| cannot bind | cannot bind | cannot bind | – | – | – | – | – | – | CCCC/C=C\CCCCCCCCCCOC(C)=O [Z11–16:AC] |
| – | – | – | 2.95 ± 0.04 µM | 4.27 ± 0.05 µM | 2.83 ± 0.11 µM | 3.81 ± 0.15 µM | 3.96 ± 0.28 µM | 4.66 ± 0.33 µM | CCCC/C=C\CCCCCCCCCC=O [Z11–16: Ald] |
